One test deals with Adenosine A2A Receptor (Homo sapiens, UniProt P29274). In words: Activity assay of adenosine receptor modulators, Adenosine A2A Receptor (Table 1). It counts as biochemical. Particulars: cAMP; read-out: A2AR cAMP IC50. The method, then:
(§1) Compounds (e.g., adenosine receptor modulators) were tested for its biological activity. The assay results in Table 1 indicate (+ means >1 μM; ++ means 100 nM to 1 μM; +++ means <100 nM).

A further test concerns the target T1, Adenosine A2B Receptor (Homo sapiens, UniProt P29275).
T1 sequence (P29275 1-332): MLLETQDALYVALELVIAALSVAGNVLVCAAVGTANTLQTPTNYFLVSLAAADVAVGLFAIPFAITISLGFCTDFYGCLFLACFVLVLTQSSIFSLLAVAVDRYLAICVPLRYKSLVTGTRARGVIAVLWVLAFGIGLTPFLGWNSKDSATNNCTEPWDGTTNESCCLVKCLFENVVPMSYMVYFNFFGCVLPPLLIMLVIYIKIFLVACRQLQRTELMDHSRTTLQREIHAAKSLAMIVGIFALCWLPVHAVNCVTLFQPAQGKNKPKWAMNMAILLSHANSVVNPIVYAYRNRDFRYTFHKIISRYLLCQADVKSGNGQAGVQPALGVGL
In words: Activity assay of adenosine receptor modulators, Adenosine A2B Receptor (Table 1). It counts as biochemical. Particulars: cAMP; read-out: A2BR cAMP IC50. Here is the method:
as §1

For the next test, the target named is T2, A1R (Homo sapiens, UniProt P30542).
T2 sequence (P30542 1-326): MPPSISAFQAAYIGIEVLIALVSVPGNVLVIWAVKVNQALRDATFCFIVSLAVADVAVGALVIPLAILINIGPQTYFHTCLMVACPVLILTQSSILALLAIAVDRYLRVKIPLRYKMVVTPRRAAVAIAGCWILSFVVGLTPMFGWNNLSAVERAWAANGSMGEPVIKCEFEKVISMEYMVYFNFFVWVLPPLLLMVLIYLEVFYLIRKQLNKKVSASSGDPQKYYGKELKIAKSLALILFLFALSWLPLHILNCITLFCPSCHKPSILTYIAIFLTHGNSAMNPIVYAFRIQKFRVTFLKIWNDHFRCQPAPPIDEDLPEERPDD
In words: Activity assay of adenosine receptor modulators, A1R cAMP (Table 1). It counts as cell-based. Here is the method:
as §1

For the next test, the target named is T3, A3R (Homo sapiens, UniProt P0DMS8).
T3 sequence (P0DMS8 1-318): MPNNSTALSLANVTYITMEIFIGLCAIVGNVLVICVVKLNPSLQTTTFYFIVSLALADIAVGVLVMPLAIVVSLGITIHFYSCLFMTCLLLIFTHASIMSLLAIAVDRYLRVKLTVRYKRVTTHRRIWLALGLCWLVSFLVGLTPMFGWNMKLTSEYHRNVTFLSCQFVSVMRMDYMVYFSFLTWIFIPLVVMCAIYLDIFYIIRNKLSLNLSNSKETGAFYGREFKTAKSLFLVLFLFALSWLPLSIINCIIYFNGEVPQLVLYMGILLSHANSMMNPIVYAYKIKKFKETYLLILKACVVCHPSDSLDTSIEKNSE
In words: Activity assay of adenosine receptor modulators, A3R cAMP (Table 1). It counts as cell-based. Here is the method:
as §1

pIC50: −log10 of the molar value.

Adenosine A2A Receptor, sequence (P29274 whole entry): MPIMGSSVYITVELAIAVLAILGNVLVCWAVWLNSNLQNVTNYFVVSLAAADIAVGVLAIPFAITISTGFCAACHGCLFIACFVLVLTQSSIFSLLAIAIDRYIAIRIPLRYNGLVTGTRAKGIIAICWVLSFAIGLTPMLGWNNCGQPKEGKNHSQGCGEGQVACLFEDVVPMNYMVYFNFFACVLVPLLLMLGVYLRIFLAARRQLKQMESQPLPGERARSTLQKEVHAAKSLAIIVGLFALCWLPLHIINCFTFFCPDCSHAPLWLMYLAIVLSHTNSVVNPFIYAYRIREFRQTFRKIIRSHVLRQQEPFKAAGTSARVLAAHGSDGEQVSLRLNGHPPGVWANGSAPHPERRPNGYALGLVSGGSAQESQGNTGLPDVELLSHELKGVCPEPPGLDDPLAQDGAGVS

Regarding `Cc1nc2nc(N[C@@H](C)c3cncc(F)c3)nc(C(=O)N3CC(NC(=O)C4CC(F)(F)C4)C3)c2s1` [Example 69, (S)-3,3-Difluoro-N-(1-(5-((1-(5-fluoropyridin-3-yl)ethyl)amino)-2-methylthiazolo[4,5-d]pyrimidine-7-carbonyl)azetidin-3-yl)cyclobutane-1-carboxamide], the pIC50 (in general, the negative decadic logarithm of the IC50, by convention in mol/L) is above 7.00 on Adenosine A2A Receptor, 6.00 to 7.00 on Adenosine A2B Receptor, below 6.00 on A1R and 6.00 to 7.00 against A3R.

Regarding `Cc1nc2nc(N[C@@H](C)c3cncc(F)c3)nc(C(=O)NC[C@H](C)O)c2s1` [Example 5, 5-(((S)-1-(5-Fluoropyridin-3-yl)ethyl)amino)-N—((S)-2-hydroxypropyl)-2-methylthiazolo[4,5-d]pyrimidine-7-carboxamide], the pIC50 on Adenosine A2A Receptor is below 6.00; on Adenosine A2B Receptor it was above 7.00; at A1R it was 6.00 to 7.00; on A3R, 6.00 to 7.00.

Regarding `CO[C@@H]1CCN(C(=O)c2nc(N[C@@H](C)c3cncc(F)c3)nc3nc(C)sc23)C1` [Example 40, (5-(((S)-1-(5-Fluoropyridin-3-yl)ethyl)amino)-2-methylthiazolo[4,5-d]pyrimidin-7-yl)((R)-3-methoxypyrrolidin-1-yl)methanone], the pIC50 on Adenosine A2A Receptor was 6.00 to 7.00; at Adenosine A2B Receptor it was above 7.00; on A1R, below 6.00; on A3R it was below 6.00.

Regarding `Cc1nc2nc(N[C@@H](C)c3cncc(F)c3)nc(C(=O)NCCc3ccc(S(N)(=O)=O)cc3)c2s1` [Example 31, (S)-5-((1-(5-Fluoropyridin-3-yl)ethyl)amino)-2-methyl-N-(4-sulfamoylphenethyl)thiazolo[4,5-d]pyrimidine-7-carboxamide], the pIC50 at Adenosine A2A Receptor is below 6.00; on Adenosine A2B Receptor it was above 7.00; against A1R, below 6.00; on A3R, below 6.00.

In the case of `COC[C@@H]1CCN(C(=O)c2nc(N[C@@H](C)c3cncc(F)c3)nc3nc(C)sc23)C1` [Example 47, (5-(((S)-1-(5-Fluoropyridin-3-yl)ethyl)amino)-2-methylthiazolo[4,5-d]pyrimidin-7-yl)((R)-3-(methoxymethyl)pyrrolidin-1-yl)methanone], the pIC50 was below 6.00 at Adenosine A2A Receptor, above 7.00 on Adenosine A2B Receptor, below 6.00 against A1R and below 6.00 on A3R.

Turning to `Cc1nc2nc(N[C@@H](C)c3cccnc3)nc(C(=O)N3CC(NC(=O)c4cccc(F)c4)C3)c2s1` [Example 74, 3-Fluoro-N-[1-[2-methyl-5-[[(S)-1-(3-pyridyl)ethyl]amino]thiazolo[4,5-d]pyrimidine-7-carbonyl]azetidin-3-yl]benzamide], the pIC50 is above 7.00 on Adenosine A2A Receptor, 6.00 to 7.00 on Adenosine A2B Receptor, below 6.00 on A1R and below 6.00 on A3R.

Take `CC(=O)NCC1CN(C(=O)c2nc(N[C@@H](C)c3cncc(F)c3)nc3nc(C)sc23)C1` [Example 39, (S)—N-((1-(5-((1-(5-Fluoropyridin-3-yl)ethyl)amino)-2-methylthiazolo[4,5-d]pyrimidine-7-carbonyl)azetidin-3-yl)methyl)acetamide]: the pIC50 is below 6.00 on Adenosine A2A Receptor, above 7.00 on Adenosine A2B Receptor, below 6.00 at A1R and below 6.00 against A3R.

Consider `Cc1nc2nc(N[C@@H](C)c3cccnc3)nc(C(=O)N3CCCC3)c2s1` [Example 6, (S)-(2-Methyl-5-((1-(pyridin-3-yl)ethyl)amino)thiazolo[4,5-d]pyrimidin-7-yl)(pyrrolidin-1-yl)methanone], for which the pIC50 at Adenosine A2A Receptor was 6.00 to 7.00; at Adenosine A2B Receptor, above 7.00; at A1R it was below 6.00; at A3R it was 6.00 to 7.00.

For the molecule `Cc1nc2nc(N[C@@H](C)c3ccccn3)nc(C(=O)N3CC(NC(=O)NC(C)(C)C)C3)c2s1` [Example 63, (S)-1-(tert-Butyl)-3-(1-(2-methyl-5-((1-(pyridin-2-yl)ethyl)amino)thiazolo[4,5-d]pyrimidine-7-carbonyl)azetidin-3-yl)urea], the pIC50 on Adenosine A2A Receptor is above 7.00; on Adenosine A2B Receptor it was 6.00 to 7.00; on A1R, below 6.00; against A3R, 6.00 to 7.00.

The values are drawn from US20200079793A1, “COMPOUNDS AND METHODS FOR MODULATING ADENOSINE A2B RECEPTOR AND ADENOSINE A2A RECEPTOR” (CORVUS PHARMACEUTICALS, INC., priority 2018, published 2020).
